Where two headings read alike, the source gives them in different places.
What was measured:
[1] = biological target: one or more of HDAC-1, HDAC-2, HDAC-3, HDAC-4, HDAC-5, HDAC-6, HDAC-7, HDAC-8, HDAC-9, HDAC-10 and HDAC-11; assay: Inhibition of Histone Deacetylase Enzymatic Activity (Boc-Lys(Ac)-AMC substrate, Fluor-de-Lys developer); format: biochemical; conditions: read-out: HDAC Inhibition (IC50 μM) HDAC Enzyme
Procedure: The following protocol is used to assay the compounds of the disclosure.
The mixture is pre-incubated for 5 minutes at room temperature. The reaction is started by bringing the temperature to 37° C. and adding 16 μl substrate. Total reaction volume is 50 μl.
In the Tables 8, 9 and 10, A≦0.05 μM; 0.05 μM<B≦0.1 μM; 0.1 μM<C≦1 μM; and 1 μM<D≦10 μM.

[2] = system: HDAC activity in primary mouse cortical cultures; assay: Whole-Cell Histone Deacetylase (HDAC) Inhibition Assay in Primary Mouse Cortical Cultures; format: cell-based; conditions: whole-cell (WC), mouse cortical neurons, read-out: HDAC Inhibition (IC50 μM) WC mouse cortical neurons
Procedure: Primary neocortical cultures are established through the dissection of the neocortex from E17 embryos harvested from time-pregnant Balb/C mice. Following dissection, the neocortical tissue specimens undergo digestion by incubation at 37° C. for 10 minutes in dissection medium (1×HBSS/10 mM HEPES/1 mM Sodium Pyruvate) supplemented with (0.25%) Trypsin and (0.1%) DNase I. Digested tissue is washed and resuspended in plating medium (NeuroBasal/10% HS/0.5 mM L-Glutamine (Invitrogen Corporation)) for trituration. Additional plating medium is added, and the contents are passed over a 70 um cell-strainer. The cell-density is quantified using a hemacytometer, and dilutions are made to allow for the plating of 50000 cells/well/100 uL in 96-well PDL-coated plates. Plates are incubated for 4-5 hours in 37° C./5% CO2-incubator, after which time the entire volume is exchanged to feeding medium (NeuroBasal/2% B-27 Serum-free supplement/0.5 mM L-Glutamine/1% Penicillin-Streptomycin (Invitrogen Corporation)). The cultures undergo two 50% fresh feeding medium exchanges at 3 days in vitro (DIV3), and again at DIV7.
Compounds for testing are resuspended in dimethyl sulphoxide (DMSO), and further diluted in DMSO for a ten-point dose-response curve, with appropriate controls. Each master plate is assayed in triplicate. […] Three DIV9 culture plates are leveled to 50 uL/well, onto which each has overlaid 50 uL/well of the diluted daughter plate. The plates are returned to the 37° C./5% CO2-incubator for 16-18 hours.
The next step of the assay involves the exposure of a HDAC colorimetric substrate, comprising an acetylated lysine side chain, to the compound-treated neuronal cultures. Based on the ability of the compound to inhibit HDAC activity in the neuronal cultures, the substrate is deacetylated by HDACs, and subsequently sensitized. […] Compound-incubated culture plates are again leveled to 50 uL/well and 2 uL/well of 7.5 mM BOC-Lys (Ac)-AMC substrate is added and thoroughly mixed. Plates are returned to the 37° C./5% CO2-incubator for 1 hour.
The final addition to the culture plates entails treatment with a Fluor de Lys™-based developer (BIOMOL Research Laboratories, Inc.) to produce a fluorophore, which is analyzed using a spectrophotometer. The developer solution (1×Fluor de Lys™/1% NP-40/1 uM TSA in HDAC Buffer Solution) is prepared, and 50 uL/well is added to each of the wells of the culture plates. […] The plates are returned to the 37° C./5% CO2-incubator for 10-15 minutes, after which time, they are removed and set in the dark at room temperature for 5-10 minutes.
Primary neocortical cultures were established through the dissection of the neocortex from E17 embryos harvested from time-pregnant Balb/C mice. Following dissection, the neocortical tissue specimens underwent digestion by incubation at 37° C. for 10 minutes in dissection medium (1×HBSS/10 mM HEPES/1 mM Sodium Pyruvate) supplemented with (0.25%) Trypsin and (0.1%) DNase I. Digested tissue was washed and resuspended in plating medium (NeuroBasal/10% HS/0.5 mM L-Glutamine (Invitrogen Corporation)) for trituration. Additional plating medium was added, and the contents passed over a 70 um cell-strainer. The cell-density was quantified using a hemacytometer, and dilutions made to allow for the plating of 50000 cells/well/100 uL in 96-well PDL-coated plates. Plates were incubated for 4-5 hours in 37° C./5% CO2-incubator, after which time the entire volume was exchanged to feeding medium (NeuroBasal/2% B-27 Serum-free supplement/0.5 mM L-Glutamine/l % Penicillin-Streptomycin (Invitrogen Corporation)). The cultures underwent two 50% fresh feeding medium exchanges at 3 days in vitro (DIV3), and again at DIV7.
Compounds for testing were resuspended in dimethyl sulphoxide (DMSO), and further diluted in DMSO for a ten-point dose-response curve, with appropriate controls. Each master plate was assayed in triplicate.

Structure (SMILES)	IC50 ([1]; Table 10)	IC50 ([2]; Table 10)	IC50 ([1]; Table 8)	IC50 ([2]; Table 8)	further results
O=C(CCCCCCC(=O)N1Cc2ccccc2Oc2ccccc21)NO [8-(dibenzo[b,f][1,4]oxazepin-10(11H)-yl)-N-hydroxy-8-oxooctanamide]	0.1 to 1 µM	1 to 5 µM	–	–	–
O=C(NO)c1ccc(CCCN2C(=O)c3ccccc3Oc3ccccc32)cc1 [N-hydroxy-4-(3-(11-oxodibenzo[b,f][1,4]oxazepin-10(11H)-yl)propyl)benzamide]	0.05 to 0.1 µM	< 1 µM	–	–	–
O=C(NO)c1ccc(CN2c3ccccc3C=Cc3ccccc32)cc1 [(Z)-4-((5H-dibenzo[b,f]azepin-5-yl)methyl)-N-hydroxybenzamide]	< 0.05 µM	5 to 15 µM	–	–	–
O=C(/C=C/c1ccc(CNC2c3ccccc3CCc3ccccc32)cc1)NO	0.05 to 0.1 µM	5 to 15 µM	–	–	–
O=C(CCCCCON=c1c2ccccc2ccc2ccccc12)NO	0.1 to 1 µM	5 to 15 µM	–	–	–
O=C(CCCCCC(=O)NC1c2ccccc2C=Cc2ccccc21)NO	0.1 to 1 µM	1 to 5 µM	–	–	–
O=C(NO)c1cnc(N2C[C@@H]3C[C@H]2CN3c2cccc(C(F)(F)F)c2)nc1 [N-hydroxy-2-((1S,4S)-5-(3-(trifluoromethyl)phenyl)-2,5-diazabicyclo[2.2.1]heptan-2-yl)pyrimidine-5-carboxamide]	–	–	–	–	IC50 ([1]; Table 9): < 0.05 µM; IC50 ([2]; Table 9): < 1 µM
COCCN1c2ccccc2N=C(c2ccc(C(=O)NO)cc2)c2ccccc21 [(Z)—N-hydroxy-4-(5-(2-methoxyethyl)-5H-dibenzo[b,e][1,4]diazepin-11-yl)benzamide]	–	–	0.1 to 1 µM	1 to 5 µM	–
CC(C)N1c2ccccc2N=C(c2ccc(C(=O)NO)cc2)c2ccccc21 [(Z)—N-hydroxy-4-(5-isopropyl-5H-dibenzo[b,e][1,4]diazepin-11-yl)benzamide]	–	–	< 0.05 µM	< 1 µM	–
O=C(NO)c1ccc(C2=Nc3ccccc3Oc3c(OC(F)(F)F)cccc32)cc1 [(Z)—N-hydroxy-4-(4-(trifluoromethoxy)dibenzo[b,f][1,4]oxazepin-11-yl)benzamide]	–	–	0.1 to 1 µM	> 15 µM	–
O=C(NO)c1ccc(N2C(=O)c3ccccc3Oc3ccccc32)cc1 [N-hydroxy-4-(11-oxodibenzo[b,f][1,4]oxazepin-10(11H)-yl)benzamide]	0.1 to 1 µM	> 15 µM	–	–	–
O=C(NO)c1cnc(NC2c3ccccc3-c3ccccc32)nc1 [2-(9H-fluoren-9-ylamino)-N-hydroxypyrimidine-5-carboxamide]	0.1 to 1 µM	5 to 15 µM	–	–	–
COc1cccc(N2C[C@@H]3C[C@H]2CN3c2ncc(C(=O)NO)cn2)c1 [N-hydroxy-2-((1S,4S)-5-(3-methoxyphenyl)-2,5-diazabicyclo[2.2.1]heptan-2-yl)pyrimidine-5-carboxamide]	–	–	–	–	IC50 ([1]; Table 9): < 0.05 µM; IC50 ([2]; Table 9): < 1 µM
C[S+]([O-])c1cccc2c1Oc1ccccc1N=C2c1ccc(C(=O)NO)cc1 (centres unmarked) [(Z)—N-hydroxy-4-(4-(methylsulfinyl)dibenzo[b,f][1,4]oxazepin-11-yl)benzamide]	–	–	0.05 to 0.1 µM	1 to 5 µM	–
O=C(NO)c1cnc(N2CCN(C3=Nc4ccccc4Oc4ccc(Cl)cc43)CC2)nc1 [(E)-2-(4-(2-chlorodibenzo[b,f][1,4]oxazepin-11-yl)piperazin-1-yl)-N-hydroxypyrimidine-5-carboxamide]	–	–	< 0.05 µM	5 to 15 µM	–
O=C(NO)c1cccc(OCCN2C(=O)c3ccccc3Oc3ccccc32)c1	0.1 to 1 µM	> 15 µM	–	–	–

Structure (SMILES)	IC50 ([1]; Table 10)	IC50 ([2]; Table 10)	IC50 ([1]; Table 8)	IC50 ([2]; Table 8)	further results
O=C(NO)c1ccc(OCCN2C(=O)c3ccncc3Oc3ccccc32)cc1	< 0.05 µM	< 1 µM	–	–	–
O=C(NO)c1ccc(N2C[C@@H]3C[C@H]2CN3c2cccc(C(F)(F)F)c2)cc1F [2-fluoro-N-hydroxy-4-((1S,4S)-5-(3-(trifluoromethyl)phenyl)-2,5-diazabicyclo[2.2.1]heptan-2-yl)benzamide]	–	–	–	–	IC50 ([1]; Table 9): 0.1 to 1 µM; IC50 ([2]; Table 9): 5 to 15 µM
O=C(NO)c1ccc(Cn2c(=O)c3ccccc3c3ccccc32)cc1 [N-hydroxy-4-((6-oxophenanthridin-5(6H)-yl)methyl)benzamide]	< 0.05 µM	< 1 µM	–	–	–
COc1cccc2c1Oc1ccccc1N=C2c1ccc(C(=O)NO)cc1 [(Z)—N-hydroxy-4-(4-methoxydibenzo[b,f][1,4]oxazepin-11-yl)benzamide]	–	–	0.05 to 0.1 µM	1 to 5 µM	–
O=C(NO)c1cnc(N2C[C@@H]3C[C@H]2CN3c2cc(C(F)(F)F)cc(C(F)(F)F)c2)nc1 [2-((1S,4S)-5-(3,5-bis(trifluoromethyl)phenyl)-2,5-diazabicyclo[2.2.1]heptan-2-yl)-N-hydroxypyrimidine-5-carboxamide]	–	–	–	–	IC50 ([1]; Table 9): < 0.05 µM; IC50 ([2]; Table 9): 1 to 5 µM
O=C(NO)c1ccc(CN2C(=O)c3ccccc3Oc3ccccc32)cc1 [N-hydroxy-4-((11-oxodibenzo[b,f][1,4]oxazepin-10(11H)-yl)methyl)benzamide]	< 0.05 µM	< 1 µM	–	–	–
O=C(NO)c1ccc(C2=Nc3ccccc3Oc3c(OCCN4CCOCC4)cccc32)cc1 [(Z)—N-hydroxy-4-(4-(2-morpholinoethoxy)dibenzo[b,f][1,4]oxazepin-11-yl)benzamide]	–	–	< 0.05 µM	< 1 µM	–
O=C(NO)c1ccc(C2=Nc3ccccc3Oc3ccccc32)c(F)c1 [(E)-4-(dibenzo[b,f][1,4]oxazepin-11-yl)-3-fluoro-N-hydroxybenzamide]	–	–	1 to 10 µM	5 to 15 µM	–
N#Cc1ccc2c(c1)Oc1ccccc1C(c1ccc(C(=O)NO)cc1)=N2 [(Z)-4-(7-cyanodibenzo[b,f][1,4]oxazepin-11-yl)-N-hydroxybenzamide]	–	–	< 0.05 µM	5 to 15 µM	–
O=C(NO)c1ccc(C2=Nc3cccc(F)c3Oc3ccccc32)cc1 [(Z)-4-(6-fluorodibenzo[b,f][1,4]oxazepin-11-yl)-N-hydroxybenzamide]	–	–	0.05 to 0.1 µM	5 to 15 µM	–
Cc1cccc2c1Oc1ccccc1C(c1ccc(C(=O)NO)cc1)=N2 [(Z)—N-hydroxy-4-(6-methyldibenzo[b,f][1,4]oxazepin-11-yl)benzamide]	–	–	0.1 to 1 µM	5 to 15 µM	–
O=C(NO)c1cnc(C2c3ccccc3C=Cc3ccccc32)nc1	0.1 to 1 µM	> 15 µM	–	–	–
O=C(NO)c1cnc(N2C[C@@H]3C[C@H]2CN3C(=O)OC2CCOCC2)nc1 [(1S,4S)-tetrahydro-2H-pyran-4-yl 5-(5-(hydroxycarbamoyl)pyrimidin-2-yl)-2,5-diazabicyclo[2.2.1]heptane-2-carboxylate]	–	–	–	–	IC50 ([1]; Table 9): < 0.05 µM; IC50 ([2]; Table 9): < 1 µM
COc1ccc2c(c1)Oc1ccccc1N=C2c1ccc(C(=O)NO)cc1 [(Z)—N-hydroxy-4-(3-methoxydibenzo[b,f][1,4]oxazepin-11-yl)benzamide]	–	–	0.1 to 1 µM	1 to 5 µM	–
O=C(NO)c1cnc(N2C[C@@H]3C[C@H]2CN3c2ccc3c(c2)OCO3)nc1 [2-((1S,4S)-5-(benzo[d][1,3]dioxol-5-yl)-2,5-diazabicyclo[2.2.1]heptan-2-yl)-N-hydroxypyrimidine-5-carboxamide]	–	–	–	–	IC50 ([1]; Table 9): < 0.05 µM; IC50 ([2]; Table 9): < 1 µM

From patent publication US20170000749A1, “Methods for Treating Cognitive Disorders Using Inhibitors of Histone Deacetylase” (Forum Pharmaceuticals, Inc., priority 2008, published 2017)
